For data set [1], the system named is MCF7. Put plainly: Induction of immunogenic cell death in human MCF7 cells assessed as CRT translocation at 10 uM by Western blot analysis. It counts as functional, cell-based. In general terms: A western blot detects proteins with antibodies after separation by electrophoresis.
In data set [2] the test system is MCF7. Put plainly: Induction of endoplasmic reticulum stress effect in human MCF7 cells assessed as change in pEIF-2alpha level at 10 uM incubated for 3 to 24 hrs by Western blot analysis. Type of data set: functional, cell-based. The following applies: time 3-24 hrs.
Data set [3] can be described thus: Toxicity in nude mouse model xenografted with human MCF7 cells assessed as body weight loss at 60 mg/kg, po administered daily via gavage for 30 days. Type of data set: organism-based. The following applies: in vivo, 720 h, time 30 day.
Data set [4] has as its system MCF7. Nature of the data set: Induction of endoplasmic reticulum stress effect in human MCF7 cells assessed as change in calnexin level at 10 uM incubated for 3 to 24 hrs by Western blot analysis. Type of data set: functional, cell-based. The following applies: time 3-24 hrs.
Data set [5] in a line: Toxicity in nude mouse model xenografted with human MCF7 cells assessed as morphological change in heart at 60 mg/kg, po administered daily via gavage for 30 days by H and E staining based analysis. Type of data set: organism-based. The following applies: in vivo, 720 h, time 30 day. In general terms: A xenograft is tissue or cells of one species grown in another, often human tumour cells in immunodeficient mice.

The test system of data set [6] is MCF7. Put plainly: Induction of endoplasmic reticulum stress effect in human MCF7 cells assessed as change in GRP78 level at 10 uM incubated for 3 to 24 hrs by Western blot analysis. It counts as functional, cell-based. The following applies: time 3-24 hrs.
For data set [7], the system named is MCF7. Nature of the data set: Induction of immunogenic cell death in human MCF7 cells assessed as HMGB1 release from nucleus at 10 uM by Western blot analysis. Type of data set: functional, cell-based.
Data set [8] in a line: Toxicity in nude mouse model xenografted with human MCF7 cells assessed as morphological change in liver at 60 mg/kg, po administered daily via gavage for 30 days by H and E staining based analysis. It counts as organism-based. The following applies: in vivo, 720 h, time 30 day.
In data set [9] the test system is MCF7. Put plainly: Antitumor activity against human MCF7 cells xenografted in nude mouse model assessed as reduction in ER level at 60 mg/kg, po administered daily via gavage for 30 days in presence of ribociclib by IHC analysis. It counts as functional, organism-based. The following applies: time 30.0 day.
Data set [10] concerns the target T1, Estrogen receptor (Homo sapiens) (UniProt P03372).
T1 sequence (whole entry): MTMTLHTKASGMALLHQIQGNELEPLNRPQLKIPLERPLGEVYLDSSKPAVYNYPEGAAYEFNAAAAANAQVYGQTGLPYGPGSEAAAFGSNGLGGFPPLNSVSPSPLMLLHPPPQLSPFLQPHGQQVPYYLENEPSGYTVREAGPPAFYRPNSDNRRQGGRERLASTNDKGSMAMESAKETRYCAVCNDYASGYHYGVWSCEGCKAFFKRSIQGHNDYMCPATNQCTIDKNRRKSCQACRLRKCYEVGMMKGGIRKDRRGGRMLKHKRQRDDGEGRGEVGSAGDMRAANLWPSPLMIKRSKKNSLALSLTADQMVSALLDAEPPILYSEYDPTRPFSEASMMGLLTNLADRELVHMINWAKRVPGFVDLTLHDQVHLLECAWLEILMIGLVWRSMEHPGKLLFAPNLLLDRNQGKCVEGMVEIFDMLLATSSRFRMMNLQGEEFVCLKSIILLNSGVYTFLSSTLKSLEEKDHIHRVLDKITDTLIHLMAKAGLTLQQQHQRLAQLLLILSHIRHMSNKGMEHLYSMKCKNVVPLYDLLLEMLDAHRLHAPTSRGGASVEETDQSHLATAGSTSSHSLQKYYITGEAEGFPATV
Put plainly: Induction of estrogen receptor degradation in estradiol-stimulated human MCF7 cells assessed as decrease in GREB1 mRNA level incubated for 24 hrs by RT-qPCR analysis. Type of data set: cell-based. The note with it: dose 1-10 µM. For orientation: Quantitative PCR measures a nucleic acid by following its amplification.

In data set [11] the test system is MCF7. Nature of the data set: Antitumor activity against human MCF7 cells xenografted in nude mouse model assessed as tumor growth inhibition at 60 mg/kg, po administered daily via gavage for 30 days. Type of data set: functional, organism-based. The note with it: time 30.0 day.
In data set [12] the test system is MCF7. Put plainly: Antitumor activity against human MCF7 cells xenografted in nude mouse model at 60 mg/kg, po administered daily via gavage for 30 days in presence of ribociclib. The note with it: time 30.0 day. Type of data set: functional, organism-based.
Data set [13] in a line: Toxicity in nude mouse model xenografted with human MCF7 cells assessed as morphological change in spleen at 60 mg/kg, po administered daily via gavage for 30 days by H and E staining based analysis. It counts as organism-based. The note with it: in vivo, 720 h, time 30 day.
Data set [14] has as its system MCF7. Nature of the data set: Induction of immunogenic cell death in human MCF7 cells assessed as HMGB1 release from nucleus at 10 uM by fluorescence microscopy. It counts as functional, cell-based.
Data set [15] has as its system MCF7. Put plainly: Induction of endoplasmic reticulum stress effect in human MCF7 cells assessed as change in CHOP level at 10 uM incubated for 24 hrs by immunofluorescence based analysis. It counts as functional, cell-based.
Data set [16] in a line: Toxicity in nude mouse model xenografted with human MCF7 cells assessed as morphological change in kidney at 60 mg/kg, po administered daily via gavage for 30 days by H and E staining based analysis. The following applies: in vivo, 720 h, time 30 day. Type of data set: organism-based.
In data set [17] the test system is MCF7. Put plainly: Induction of immunogenic cell death in human MCF7 cells assessed as HMGB1 release from nucleus at 10 uM by FITC staining based flow cytometry. Type of data set: functional.
The test system of data set [18] is MCF7. Put plainly: Induction of cell cycle arrest at G0/G1 phase in human MCF7 cells at 10 uM incubated for 24 hrs by PI/RNase staining based flow cytometry (reference value: 53.5 +/- 1.96 %). Type of data set: functional.
The test system of data set [19] is Ishikawa. Nature of the data set: Antiproliferative activity against human Ishikawa cells at 20 uM incubated for 3 days by MTT assay relative to control. It counts as functional. The following applies: 72 h, time 3 day.
Data set [20] concerns the target T1, Estrogen receptor (Homo sapiens). Put plainly: Induction of estrogen receptor degradation in MG-132-treated human MCF7 cells at 10 uM incubated for 4 to 6 hrs by Western blot analysis. Type of data set: cell-based. The following applies: time 4-6 hrs.
Data set [21] concerns MCF7. Nature of the data set: Antitumor activity against human MCF7 cells xenografted in nude mouse model assessed as reduction in Ki67 level at 60 mg/kg, po administered daily via gavage for 30 days in presence of ribociclib by IHC analysis. The following applies: time 30.0 day. It counts as functional, organism-based.
The target in data set [22] is T1, Estrogen receptor (Homo sapiens). Nature of the data set: Induction of estrogen receptor degradation in estradiol-stimulated human MCF7 cells assessed as decrease in TFF1 mRNA level incubated for 24 hrs by RT-qPCR analysis. Type of data set: cell-based. The following applies: dose 1-10 µM.
The test system of data set [23] is MCF7. Put plainly: Induction of ROS production in human MCF7 cells measured after 6 to 24 hrs by flow cytometry. Type of data set: functional, cell-based. The following applies: time 6-24 hrs.
The subject of data set [24] is MCF7. Put plainly: Antitumor activity against human MCF7 cells xenografted in nude mouse model assessed as reduction in PR level at 60 mg/kg, po administered daily via gavage for 30 days in presence of ribociclib by IHC analysis. The note with it: time 30.0 day. It counts as functional, organism-based.
The subject of data set [25] is MCF7. Put plainly: Induction of immunogenic cell death in human MCF7 cells assessed as CRT translocation at 10 uM by fluorescence microscopy. Type of data set: functional, cell-based.
Data set [26] addresses T1, Estrogen receptor (Homo sapiens). Nature of the data set: Induction of estrogen receptor degradation in human MCF7 cells expressing ERE-luciferase at 10 uM incubated for 24 hrs by luminescence based analysis. It counts as cell-based.
Data set [27] has as its system Uterus. Put plainly: Effect on immature Sprague-Dawley rat uterus assessed as reduction in uterine wet weight at 60 mg/kg, po qd for 2 days by H and E staining based analysis. It counts as functional, organism-based. The following applies: time 2.0 day.
The subject of data set [28] is MCF7. Nature of the data set: Induction of immunogenic cell death in human MCF7 cells assessed as HSP90 exposure at 10 uM by Western blot analysis. It counts as functional, cell-based.
Data set [29] has as its system MCF7. Nature of the data set: Induction of immunogenic cell death in human MCF7 cells assessed as CRT translocation at 10 uM by FITC staining based flow cytometry. Type of data set: functional.
Data set [30] concerns the target T1, Estrogen receptor (Homo sapiens). Nature of the data set: Induction of estrogen receptor degradation in human MCF7 cells at 10 uM by fluorescence microscopy. It counts as cell-based.
Data set [31] deals with MCF7. Put plainly: Synergistic antiproliferative activity against human MCF7 cells at 0.1 to 10000 nM incubated for 5 days in presence of Ribociclib by MTT assay. The following applies: dose 0.1-10000 nM, time 5.0 day. Type of data set: functional, cell-based.
Data set [32] concerns MCF7. Put plainly: Antiproliferative activity against human MCF7 cells incubated for 5 days by MTT assay. The note with it: MCF7, 120 h. It counts as functional, cell-based.
For data set [33], the system named is MCF7. Put plainly: Induction of endoplasmic reticulum stress effect in human MCF7 cells assessed as change in calnexin level at 10 uM incubated for 24 hrs by immunofluorescence based analysis. It counts as functional, cell-based.
The test system of data set [34] is MCF7. Put plainly: Induction of endoplasmic reticulum stress effect in human MCF7 cells assessed as change in EIF-2alpha level at 10 uM incubated for 3 to 24 hrs by Western blot analysis. The note with it: time 3-24 hrs. It counts as functional, cell-based.
The subject of data set [35] is MCF7. Nature of the data set: Induction of endoplasmic reticulum stress effect in human MCF7 cells assessed as change in ATF4 level at 10 uM incubated for 3 to 24 hrs by Western blot analysis. It counts as functional, cell-based. The following applies: time 3-24 hrs.
Data set [36] concerns MCF7. Put plainly: Induction of immunogenic cell death in human MCF7 cells assessed as ATP release […] at 10 uM. It counts as functional, cell-based.
The test system of data set [37] is MCF7. Nature of the data set: Induction of endoplasmic reticulum stress effect in human MCF7 cells assessed as change in CHOP level at 10 uM incubated for 3 to 24 hrs by Western blot analysis. It counts as functional, cell-based. The note with it: time 3-24 hrs.
Data set [38] deals with T1, Estrogen receptor (Homo sapiens). Put plainly: Induction of estrogen receptor degradation in estradiol-stimulated human MCF7 cells assessed as decrease in PGR mRNA level incubated for 24 hrs by RT-qPCR analysis. Type of data set: cell-based. The note with it: dose 1-10 µM.
For data set [39] the target is unchanged. Nature of the data set: Induction of estrogen receptor degradation in human MCF7 cells incubated for 24 hrs by Western blot analysis. It counts as cell-based. The following applies: dose 0.001-10 µM.
Data set [40] has as its system MCF7. Put plainly: Induction of ROS production in human MCF7 cells incubated for 3 to 24 hrs by immunofluorescence analysis. The following applies: time 3-24 hrs. Type of data set: functional, cell-based.
Data set [41] deals with Uterus. Nature of the data set: Effect on immature Sprague-Dawley rat uterus assessed as reduction in uterine wet weight at 2 mg/kg, sc qd for 2 days by H and E staining based analysis. Type of data set: functional, organism-based. The note with it: time 2.0 day.

Activity calls are given as the source filed them. The rule behind the calls is not given here.

Consider `CCc1cc(/C=C/C(=O)O)ccc1Oc1c(C(=O)c2ccccc2CC)cnc2cc(O)ccc12`, for which the outcome in [1], in data set [2], in data set [4], in [6], in [7] and in data set [9] was Active. The outcome in data set [12], in data set [14], in data set [15], in data set [17], in data set [21] and in [24] was Active. Moreover, the result in [25], in data set [26], in [28], in data set [29], in data set [30] and in [31] was Active. For the same molecule, the result in data set [33], in [34], in data set [35], in data set [36] and in data set [37] was Active. Moreover, the Activity result was “Non-Toxic” in data set [3]; “Non-Toxic” in data set [5]; “Non-Toxic” in data set [8]; “Dose-Dependent Effect” in data set [10]; “Non-Toxic” in [13]; “Non-Toxic” in data set [16]. The Activity in data set [18] is 64%; in data set [22], “Dose-Dependent Effect”; in data set [38], “Dose-Dependent Effect”; in data set [39] it was “Dose-Dependent Effect”. Further, in data set [11], the inhibition result was “Active”. The inhibition at 20 µM in [19] is 13.2%. Besides, the result in [20], in data set [23], in data set [27] and in data set [40] was inactive. Also, in data set [32], half-maximal inhibition (IC50) required 510 nM.

Regarding `C[C@]12CC[C@@H]3c4ccc(O)cc4C[C@@H](CCCCCCCCC[S+]([O-])CCCC(F)(F)C(F)(F)F)[C@H]3[C@@H]1CC[C@@H]2O` (stereo partly specified) [FULVESTRANT], the result in data set [41] and in data set [31] was Active. In data set [18], the Activity worked out at 66.83%. In addition, the inhibition at 20 µM in [19] is -3.19%. The molecule further gave a concentration for half-maximal inhibition (IC50) in [32] of 0.646 nM. The outcome in data set [40] was inactive.

Broadly, the inhibition is the relative decrease from the control value, in per cent. The term IC50 denotes the midpoint of a concentration-inhibition curve. A high value points to a need for much substance.

The values are drawn from ChEMBL document CHEMBL5584239, “Discovery of novel quinoline scaffold selective estrogen receptor degraders (SERDs) for treatment of ER positive breast cancer with enhanced antiproliferative bioactivity through immunogenic cell death (ICD) effects” (Eur J Med Chem, 2024).
